Patent publication US5171835A, “LHRH antagonists” (The Administrators of the Tulane Educational Fund, priority 1991, dated 1992)

What was measured:
[1] = tested on: ovulation in 4-day-cycling rats; experiment: In vivo antiovulatory activity in 4-day-cycling rats; parameters: species or system rat
Protocol: (b) In vivo antiovulatory activity of peptides is determined in 4-day-cycling rats as described [A. Corbin and C. W. Beattie, Endocr. Res. Commun., 2, 1-23 (1975)].

[2] = tested on: perfused rat pituitary cell system (LH response to LH-RH); experiment: LH-RH inhibiting activity in superfused rat pituitary cell system; assay type: cell-based
Protocol: Immediately after that, a mixture containing the same concentration of peptide and 3 nM LHRH is administered for 3 min. This was followed by four consecutive infusions of 3 nM LHRH for 3 min (1 ml perfusate) at 30 min intervals (30, 60, 90, 120 min). LH content of the 1 ml fractions collected is determined by radioimmunoassay (RIA).

[3] = tested on: membrane receptors of human breast cancer cells; experiment: Receptor binding, human breast cancer cell membranes (125I-[D-Trp6]LHRH as labelled ligand); conditions: 125I-[D-Trp]6 LHRH labelled ligand; for Affinity Constant Ka 1: NB = no binding
Protocol: Affinity of peptides to rat pituitary and human breast cancer cell membranes is determined by using labelled LHRH and [D-Trp^6 ]LHRH. The assay is carried out similarly to that described by T. Kadar et al., Proc. Natl. Acad. Sci. USA, 85, 890-894 (1988) and M. Fekete et al., Endocrinology, 124, 946-955 (1989).

LH and FSH levels = experiment: In vivo effect on LH and FSH levels in castrated male rats; parameters: species or system rat; conditions: s.c.
Protocol: (d) In vivo effect on LH and FSH levels was measured as described by L. Bokser et al. (Proc. Natl. Acad. Sci. US, accepted for publication.) Castrated male rats weighing 350-410 grams anaesthetized with urethane were injected subcutaneously with Peptide 7 and 8 in doses of 1.25 μg and 5.0 μg. Blood samples were taken from the jugular vein before injection and 1, 2, 3, 4, 6, 24 and 48 hours after the administration of peptides. Control animals were injected only with saline. LH and FSH levels were determined by specific RIAs.

[4] = antagonist to LH-RH ratio 1:1, 0 min
[5] = antagonist to LH-RH ratio 1:1, 30 min
[6] = antagonist to LH-RH ratio 1:1, 60 min
[7] = antagonist to LH-RH ratio 1:1, 90 min
[8] = antagonist to LH-RH ratio 3:1, 0 min
[9] = antagonist to LH-RH ratio 3:1, 30 min
[10] = antagonist to LH-RH ratio 3:1, 60 min
[11] = antagonist to LH-RH ratio 3:1, 90 min

Substance: Ac-D-Nal(2)-D-Phe(4Cl)-D-Pal(3)-Ser-Tyr-D-Lys[DL-A2 bu(Car)2 ]-Leu-Arg-Pro-D-Ala-NH2 [Peptide 16]
- % Blockade of Ovulation ([1]; dose 1.5 μg): 33%
- % inhibition of LH response [2, 4]: 52%
- % inhibition of LH response [2, 5]: 33%
- % inhibition of LH response [2, 6]: 24%
- % inhibition of LH response [2, 7]: 28%

Substance: Ac-D-Nal(2)-D-Phe(4Cl)-D-Trp-Ser-Arg-D-Lys[A2 pr(For)2 ]-Leu-Arg-Pro-D-Ala-NH2 [Peptide 24]
- % Blockade of Ovulation ([1]; dose 1.5 μg): 50%
- % inhibition of LH response [2, 4]: 36%
- % inhibition of LH response [2, 5]: 11%
- % inhibition of LH response [2, 6]: 0%
- % inhibition of LH response [2, 7]: 9%
- % inhibition of LH response [2, 8]: 58%
- % inhibition of LH response [2, 9]: 5%
- % inhibition of LH response [2, 10]: 18%
- % inhibition of LH response [2, 11]: 27%

Substance: Ac-D-Nal(2)-D-Phe(4Cl)-D-Pal(3)-Ser-Arg-D-Lys[A2 pr(For)2 ]-Leu-Arg-Pro-D-Ala-NH2 [Peptide 3]
- % inhibition of LH response [2, 8]: 93%
- % inhibition of LH response [2, 9]: 43%
- % inhibition of LH response [2, 10]: 26%
- % inhibition of LH response [2, 11]: 24%

Substance: Ac-D-Nal(2)-D-Phe(4Cl)-D-Trp-Ser-Arg-D-Lys[A2 pr(Car)2 ]-Leu-Arg-Pro-D-Ala-NH2 [Peptide 22]
- Affinity Constant Ka 2 [3]: 2.67 µM⁻¹
- Affinity Constant Ka 1 [3]: 4.09 nM⁻¹
- % inhibition of LH response [2, 8]: 64%
- % inhibition of LH response [2, 9]: 22%
- % inhibition of LH response [2, 10]: 24%

Substance: Ac-D-Nal(2)-D-Phe(4Cl)-D-Pal(3)-Ser-Tyr-D-Lys[A2 pr(For)2 ]-Leu-Arg-Pro-D-Ala-NH2 [Peptide 10]
- Affinity Constant Ka 2 [3]: 2.11 µM⁻¹
- Affinity Constant Ka 1 [3]: 48.29 nM⁻¹
- % Blockade of Ovulation ([1]; dose 0.75 μg): 67%
- % Blockade of Ovulation ([1]; dose 1.5 μg): 100%

Substance: Ac-D-Nal(2)-D-Phe(4Cl)-D-Pal(3)-Ser-Tyr-D-Lys[DL-A2 bu(For)2 ]-Leu-Arg-Pro-D-Ala-NH2 [Peptide 15]
- % Blockade of Ovulation ([1]; dose 1.5 μg): 100%
- % Blockade of Ovulation ([1]; dose is 0.375 μg): 25%
- % inhibition of LH response [2, 4]: 44%
- % inhibition of LH response [2, 5]: 41%
- % inhibition of LH response [2, 6]: 22%
- % inhibition of LH response [2, 7]: 23%
- % inhibition of LH response [2, 8]: 99%
- % inhibition of LH response [2, 9]: 60%
- % inhibition of LH response [2, 10]: 34%
- % inhibition of LH response [2, 11]: 21%

Substance: Ac-D-Nal(2)-D-Phe(4Cl)-D-Pal(3)-Ser-Tyr-D-Lys[A2 pr]-Leu-Arg-Pro-D-Ala-NH2 [Peptide 25]
- Affinity Constant Ka 2 [3]: 1.29 µM⁻¹
- Affinity Constant Ka 1 [3]: 3.49 nM⁻¹
- % inhibition of LH response [2, 4]: 57%
- % inhibition of LH response [2, 5]: 49%
- % inhibition of LH response [2, 6]: 43%
- % inhibition of LH response [2, 8]: 85%
- % inhibition of LH response [2, 9]: 69%
- % inhibition of LH response [2, 10]: 62%
- % inhibition of LH response [2, 11]: 57%

Substance: Ac-D-Nal(2)-D-Phe(4Cl)-D-Pal(3)-Ser-Tyr-D-Lys[DL-A2 bu(PRL)2 ]-Leu-Arg-Pro-D-Ala-NH2 [Peptide 18]
- Affinity Constant Ka 2 [3]: 6.17 µM⁻¹
- Affinity Constant Ka 1 [3]: 21.18 nM⁻¹
- % Blockade of Ovulation ([1]; dose 0.75 μg): 75%
- % inhibition of LH response [2, 8]: 90%
- % inhibition of LH response [2, 9]: 71%
- % inhibition of LH response [2, 10]: 58%
- % inhibition of LH response [2, 11]: 54%

Substance: Ac-D-Nal(2)-D-Phe(4Cl)-D-Pal(3)-Ser-Tyr-D-Lys[DL-A2 bu(LAU)2 ]-Leu-Arg-Pro-D-Ala-NH2 [Peptide 19]
- Affinity Constant Ka 2 [3]: 0 µM⁻¹
- Affinity Constant Ka 1 [3]: 0 nM⁻¹
- % inhibition of LH response [2, 4]: 20%
- % inhibition of LH response [2, 5]: 20%
- % inhibition of LH response [2, 6]: 0%
- % inhibition of LH response [2, 7]: 0%

Substance: Ac-D-Nal(2)-D-Phe(4Cl)-D-Trp-Ser-Arg-D-Lys[A2 pr(Ac)2 ]-Leu-Arg-Pro-D-Ala-NH2 [Peptide 23]
- Affinity Constant Ka 2 [3]: 0.14 µM⁻¹
- Affinity Constant Ka 1 [3]: 6.87 nM⁻¹
- % inhibition of LH response [2, 8]: 52%
- % inhibition of LH response [2, 9]: 22%
- % inhibition of LH response [2, 10]: 21%
- % inhibition of LH response [2, 11]: 22%

Substance: Ac-D-Nal(2)-D-Phe(4Cl)-D-Pal(3)-Ser-Arg-D-Lys[A2 pr(EtCar)2 ]-Leu-Arg-Pro-D-Ala-NH2 [Peptide 4]
- Affinity Constant Ka 2 [3]: 0.05 µM⁻¹
- Affinity Constant Ka 1 [3]: 9.71 nM⁻¹
- % inhibition of LH response [2, 8]: 91%
- % inhibition of LH response [2, 9]: 50%
- % inhibition of LH response [2, 10]: 42%
- % inhibition of LH response [2, 11]: 41%

Substance: Ac-D-Nal(2)-D-Phe(4Cl)-D-Pal(3)-Ser-Tyr-D-Lys[DL-A2 bu(Ac)2 ]-Leu-Arg-Pro-D-Ala-NH2 [Peptide 14]
- Affinity Constant Ka 2 [3]: 0.28 µM⁻¹
- Affinity Constant Ka 1 [3]: 4.83 nM⁻¹
- % Blockade of Ovulation ([1]; dose 1.5 μg): 20%
- % inhibition of LH response [2, 8]: 80%
- % inhibition of LH response [2, 9]: 63%
- % inhibition of LH response [2, 10]: 51%
- % inhibition of LH response [2, 11]: 53%

Substance: Ac-D-Nal(2)-D-Phe(4Cl)-D-Pal(3)-Ser-Tyr-D-Lys[A2 pr(Car)2 ]-Leu-Arg-Pro-D-Ala-NH2 [Peptide 7]
- Affinity Constant Ka 2 [3]: 5.72 µM⁻¹
- Affinity Constant Ka 1 [3]: 6.27 nM⁻¹
- inhibition of LH levels forty-eight hours after injection (LH and FSH levels; dose of 5 μg, 48 hours, p<0.05): significant inhibition
- duration of significant decrease in the LH levels (LH and FSH levels; p<0.01): more than 24 hours
- % inhibition of LH response [2, 4]: 57%
- % inhibition of LH response [2, 5]: 51%
- % inhibition of LH response [2, 6]: 45%
- % inhibition of LH response [2, 7]: 41%
- % inhibition of LH response [2, 8]: 96%
- % inhibition of LH response [2, 9]: 78%
- % inhibition of LH response [2, 10]: 70%
- % inhibition of LH response [2, 11]: 58%

Substance: Ac-D-Nal(2)-D-Phe(4Cl)-D-Pal(3)-Ser-Tyr-D-Lys[A2 pr(EtCar)2 ]-Leu-Arg-Pro-D-Ala-NH2 [Peptide 9]
- Affinity Constant Ka 2 [3]: 8.57 µM⁻¹
- Affinity Constant Ka 1 [3]: 30.92 nM⁻¹
- % Blockade of Ovulation ([1]; dose 0.75 μg): 20%
- % Blockade of Ovulation ([1]; dose 1.5 μg): 50%
- % inhibition of LH response [2, 8]: 90%
- % inhibition of LH response [2, 9]: 72%

Substance: Ac-D-Nal(2)-D-Phe(4Cl)-D-Pal(3)-Ser-Tyr-D-Lys[A2 pr(CHC)2 ]-Leu-Arg-Pro-D-Ala-NH2 [Peptide 12]
- Affinity Constant Ka 2 [3]: 3.57 µM⁻¹
- Affinity Constant Ka 1 [3]: 1.68 nM⁻¹

Substance: Ac-D-Nal(2)-D-Phe(4Cl)-D-Pal(3)-Ser-Arg-D-Lys[A2 pr(Ac)2 ]-Leu-Arg-Pro-D-Ala-NH2 [Peptide 2]
- Affinity Constant Ka 2 [3]: 0.32 µM⁻¹
- Affinity Constant Ka 1 [3]: 16.35 nM⁻¹
- % inhibition of LH response [2, 4]: 26%
- % inhibition of LH response [2, 5]: 27%
- % inhibition of LH response [2, 6]: 29%
- % inhibition of LH response [2, 7]: 25%
- % inhibition of LH response [2, 8]: 88%
- % inhibition of LH response [2, 9]: 41%
- % inhibition of LH response [2, 10]: 13%

Substance: Ac-D-Nal(2)-D-Phe(4Cl)-D-Pal(3)-Ser-Tyr-D-Lys[DL-A2 bu]-Leu-Arg-Pro-D-Ala-NH2 [Peptide 26]
- % inhibition of LH response [2, 4]: 70%
- % inhibition of LH response [2, 5]: 52%
- % inhibition of LH response [2, 6]: 37%
- % inhibition of LH response [2, 8]: 90%
- % inhibition of LH response [2, 9]: 75%
- % inhibition of LH response [2, 10]: 62%
- % inhibition of LH response [2, 11]: 57%

Substance: Ac-D-Nal(2)-D-Phe(4Cl)-D-Pal(3)-Ser-Arg-D-Lys[A2 pr(Car)2 ]-Leu-Arg-Pro-D-Ala-NH2 [Peptide 1]
- Affinity Constant Ka 2 [3]: 3.15 µM⁻¹
- Affinity Constant Ka 1 [3]: 7.07 nM⁻¹
- % inhibition of LH response [2, 4]: 80%
- % inhibition of LH response [2, 5]: 46%
- % inhibition of LH response [2, 6]: 31%
- % inhibition of LH response [2, 8]: 95%
- % inhibition of LH response [2, 9]: 59%
- % inhibition of LH response [2, 10]: 55%
- % inhibition of LH response [2, 11]: 52%
